Reference: patent US20150299233A1, “COMPOSITIONS AND METHODS COMPRISING RHENIUM FOR THE TREATMENT OF CANCERS” (Massachusetts Institute of Technology, priority 2014, published 2015)
Where two headings read alike, the source gives them in different places.

Columns and labels:
[1] = Lipophilicity, partition between octanol and water; type: physicochemical; details: experimentally determined
[2] = tested on: HT-29 (colorectal adenocarcinoma); test: MTT cytotoxicity assay, HT-29 cells; type: cell-based, human; details: for IC50: Table 2, cisplatin-resistant cell line, 72 h exposure; for IC50 lower in HT-29 cells than IC50 of cisplatin: ratio to cisplatin
Experimental: Cytotoxicity MTT Assay. […] Cells (2×10^3 cells/well) were seeded in a 96-well plate. […] The final concentration of DMSO in each well was 0.5%, and this amount was also present in the untreated control. After 72 h, the medium was removed, 200 μL of a 0.4 mg/mL solution of MTT in DMEM, RPMI, or McCoy's 5A was added, and the plate was incubated for an additional 1-2 h. The DMEM/MTT, RPMI/MTT, or McCoy's 5A/MTT mixture was aspirated, and 200 μL of DMSO was added to dissolve the resulting purple formazan crystals. The absorbance of the solution wells was read at 550 nm. Absorbance values were normalized to DMSO-containing control wells and plotted as the concentration of test compound versus % cell viability. IC50 values were interpolated from the resulting dose-dependent curves. The reported IC50 values are the average from at least three independent experiments, each of which consisted of six replicates per concentration level.

[3] = tested on: cisplatin-resistant ovarian carcinoma cells (A2780CP70); test: MTT cytotoxicity assay, A2780CP70 cells; type: cell-based, human
[4] = tested on: MEFs PARP-1+/+ and MEFs PARP-1−/− cells; test: Cytotoxicity in MEFs PARP-1+/+ versus PARP-1-/- cells; type: cell-based, mouse; details: 72 h, FIG. 3A
Experimental: (§1) (PARP-1). PARP-1 is a nuclear enzyme that is involved in DNA repair and transcriptional regulation. DNA damage can trigger PARP-1 activity, resulting in ATP and NAD depletion and bioenergetics- mediated cell death. To determine whether PARP-1 activity is a factor in 1- and 2-mediated cell death, cytotoxicity assays were conducted with wild-type mouse embryonic fibroblast cells (MEFs PARP-1+/+) and the corresponding PARP-1-null cells (MEFs PARP-1−/−). […] Recently, p53 has also been reported to play a role in necroptosis. p53 induces cathepsin Q, a lysosomal protease that cooperates with ROS to execute necrosis. To investigate whether p53 might play a role in 1- and 2-mediated necroptosis, cytotoxicity studies were conducted with HCT116 p53^+/+ nd HCT116 p53^−/− cells.
(§2) Cell Cycle Analysis. To gain a more complete understanding of the cellular response evoked, DNA-flow cytometric studies were conducted to determine the effect of 1 and 2 on the cell cycle. A549 cells were treated with 1 or 2 (2 μM), and the cell cycle was determined over the course of 72 h. […] Upon further incubation (72 h), large populations of cell debris were detected (32%), indicative of cell death. […]
(§3) Cytotoxicity MTT Assay. […] The absorbance of the solution wells was read at 550 nm. Absorbance values were normalized to DMSO-containing control wells and plotted as the concentration of test compound versus % cell viability. […]

[5] = tested on: HCT116 p53+/+ and HCT116 p53−/− cells; test: Cytotoxicity in HCT116 p53+/+ versus p53-/- cells; type: cell-based; details: 72 h, FIG. 3B
Experimental: as §1, §2, §3

[6] = Stability in whole human blood (octanol extraction, GFAAS); type: in vitro ADME; details: 500 μM, fresh human blood, 37° C.
Experimental: The stability of biologically active compounds in human blood is vitally important for their potential application in clinical settings. The stability of 1 in whole human blood using a recently developed protocol was investigated. The method exploits the ability of octanol to extract hydrophobic metal complexes such as 1. The rhenium complex 1 (500 μM) was incubated with fresh human blood at 37° C., and aliquots were extracted into octanol at various time points. The amount of 1 in the octanol extracts (corresponding to unreacted 1) was measured by graphite furnace atomic absorption spectroscopy (GFAAS).

[7] = Table 1, 72 h exposure, ± standard deviation, read-out: IC50 A2780CP70 ovarian carcinoma
[8] = Table A, average of three independent determinations, read-out: IC50 A280CP70 (ovarian)

| SMILES | log P [1] | IC50 [2] | IC50 lower in HT-29 cells than IC50 of cisplatin [2] | IC50 [3, 7] | IC50 [3, 8] | IC50 in MEFs PARP-1+/+ compared with MEFs PARP-1−/− [4] | potency in HCT116 p53+/+ compared with HCT116 p53−/− [5] | half-life in human blood [6] |
| --- | --- | --- | --- | --- | --- | --- | --- | --- |
| C[O][Re-2]1(=[O])([Cl])([Cl])[n+]2cc(C)c(C)c3ccc4c(C)c(C)c[n+]1c4c32 [Compound 2, [ReO(OMe)(3,4,7,8-tetramethyl-1,10-phenanthroline)Cl2]] | 0.95 | 95 ± 20 nM | 300 fold | 56 ± 2 nM | 56 ± 2 nM | similar | statistically similar | – |
| C[O][Re](=[O])([Cl])[Cl].c1ccc(-c2ccnc3c2ccc2c(-c4ccccc4)ccnc23)cc1 [Compound 1, [ReO(OMe)(4,7-diphenyl-1,10-phenanthroline)-Cl2]] | 1.20 | 85 ± 11 nM | 300 fold | 42 ± 15 nM | 42 ± 15 nM | similar | statistically similar | 29.1 min |
